Measured values published in patent US11834460B2, “Imide-based modulators of proteolysis and associated methods of use” (YALE UNIVERSITY, priority 2018, dated 2023).
Where a SMILES comes first, the peptide text is derived from it. The star is where a group is joined. Cbz = O=C(OCc1ccccc1)*

Target: T1, androgen receptor (AR) (Homo sapiens, UniProt P10275)
T1 construct: detects endogenous levels of total androgen receptor protein; endogenous in cells; host or cells: VCaP
T1 sequence (P10275 1-920): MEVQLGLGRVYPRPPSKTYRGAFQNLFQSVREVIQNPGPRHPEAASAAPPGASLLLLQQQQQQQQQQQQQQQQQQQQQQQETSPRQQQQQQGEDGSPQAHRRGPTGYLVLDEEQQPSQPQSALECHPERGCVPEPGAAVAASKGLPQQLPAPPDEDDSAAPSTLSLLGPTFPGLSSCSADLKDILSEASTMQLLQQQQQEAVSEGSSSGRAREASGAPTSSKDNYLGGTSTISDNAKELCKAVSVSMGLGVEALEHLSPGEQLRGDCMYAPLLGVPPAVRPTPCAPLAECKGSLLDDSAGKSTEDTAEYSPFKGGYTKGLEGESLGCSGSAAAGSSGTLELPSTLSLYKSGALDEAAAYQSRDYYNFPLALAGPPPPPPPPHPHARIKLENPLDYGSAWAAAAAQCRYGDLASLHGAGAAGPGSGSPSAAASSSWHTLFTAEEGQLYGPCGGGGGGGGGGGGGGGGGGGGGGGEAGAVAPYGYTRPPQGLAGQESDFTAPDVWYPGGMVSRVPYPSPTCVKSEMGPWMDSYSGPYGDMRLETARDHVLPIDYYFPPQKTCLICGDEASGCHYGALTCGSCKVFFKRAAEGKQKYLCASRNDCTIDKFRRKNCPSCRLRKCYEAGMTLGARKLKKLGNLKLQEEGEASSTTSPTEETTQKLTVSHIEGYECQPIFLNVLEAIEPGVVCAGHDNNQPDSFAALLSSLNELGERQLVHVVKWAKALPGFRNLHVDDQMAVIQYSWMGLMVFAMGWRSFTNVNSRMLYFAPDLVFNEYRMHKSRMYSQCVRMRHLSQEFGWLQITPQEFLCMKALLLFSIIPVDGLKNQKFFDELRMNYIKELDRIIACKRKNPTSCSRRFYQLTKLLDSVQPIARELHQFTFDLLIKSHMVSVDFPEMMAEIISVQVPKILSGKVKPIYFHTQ
Experiment: AR ELISA protocol, degradation in VCaP cells
Type: cell-based
Parameters: Dmax: dose or concentration left out as unconfirmed
Conditions: 1 uM, 16 h
Procedure: In each bioassay, cells were treated with varying amounts of compounds encompassed by the present disclosure, as shown in Table 1. The degradation of the following proteins were evaluated in this study: TANK-binding kinase 1 (TBK1), estrogen receptor α (ERα), bromodomain-containing protein 4 (BRD4), androgen receptor (AR), and c-Myc.
VCaP cells were purchased from ATCC and cultured in Dulbecco's Modified Eagle's Medium (ATCC), supplemented with 10% FBS (ATCC) and Penicillin/Streptomycin (Life Technologies). DMSO control and compound treatments (0.0001 μM-1 μM) were performed in 96-well plates for 16 h. Cells were harvested, and lysed with Cell Lysis Buffer (Catalog #9803) (20 mM Tris-HCL (pH 7.5), 150 mM NaCl, 1 mM Na2EDTA, 1 mM EGTA, 1% Triton, 2.5 mM sodium pyrophosphate, 1 mM B-glycerophosphate, 1 mM Na3VO4, 1 ug/ml leupeptin. Lysates were clarified at 16,000 g for 10 minutes, and loaded into the PathScan AR ELISA (Cell Signaling Catalog #12850). The PathScan® Total Androgen Receptor Sandwich ELISA Kit is a solid phase sandwich enzyme-linked immunosorbent assay (ELISA) that detects endogenous levels of total androgen receptor protein. An Androgen Receptor Rabbit mAb has been coated onto the microwells. After incubation with cell lysates, androgen receptor protein is captured by the coated antibody. Following extensive washing, an Androgen Receptor Mouse Detection mAb is added to detect the captured androgen receptor protein. Anti-mouse IgG, HRP-linked Antibody is then used to recognize the bound detection antibody. HRP substrate, TMB, is added to develop color. The magnitude of absorbance for the developed color is proportional to the quantity of total androgen receptor protein. Antibodies in kit are custom formulations specific to kit.

First: CC1(C)C(=O)N(c2ccc(C#N)c(C(F)(F)F)c2)C(=S)N1c1ccc(OCCCOCCCOCCNc2cccc3c2C(=O)N(C2CCC(=O)NC2=O)C3=O)cc1 (stereo not drawn) [Compound 2]
Second: CC1(C)C(=O)N(c2ccc(C#N)c(C(F)(F)F)c2)C(=S)N1c1ccc(OCCCOCCOCCNc2cccc3c2C(=O)N(C2CCC(=O)NC2=O)C3=O)cc1 (stereo not drawn) [Compound 9, 4-(3-(4-(3-(2-(2-((2-(2,6-dioxopiperidin-3-yl)-1,3-dioxoisoindolin-4-yl)amino)ethoxy)ethoxy)propoxy)phenyl)-4,4-dimethyl-5-oxo-2-thioxoimidazolidin-1-yl)-2-(trifluoromethyl) benzonitrile]
The Dmax at 1 µM of the first is higher: 31 to 50% for the first, 10 to 30% for the second.

`CC1(C)C(=O)N(c2ccc(C#N)c(C(F)(F)F)c2)C(=S)N1c1ccc(OCCOCCOCCOCCNc2cccc3c2C(=O)N(C2CCC(=O)NC2=O)C3=O)cc1` (stereo not drawn) [Compound 3, 4-(3-(4-(2-(2-(2-(2-((2-(2,6-dioxopiperidin-3-yl)-1,3-dioxoisoindolin-4-yl)amino)ethoxy)ethoxy)ethoxy)ethoxy)phenyl)-4,4-dimethyl-5-oxo-2-thioxo-imidazolidin-1-yl)-2-(trifluoromethyl) benzonitrile] and `CC1(C)C(=O)N(c2ccc(C#N)c(C(F)(F)F)c2)C(=S)N1c1ccc(OCCOCCOCCOCCNc2cccc3c2C(=O)N([C@H]2CCC(=O)NC2=O)C3=O)cc1` [Compound 4, (S)-4-(3-(4-(2-(2-(2-(2-((2-(2,6-dioxopiperidin-3-yl)-1,3-dioxoisoindolin-4-yl)amino)ethoxy)ethoxy)ethoxy)ethoxy)phenyl)-4,4-dimethyl-5-oxo-2-thioxoimidazolidin-1-yl)-2-(trifluoromethyl) benzonitrile] fall in the same range of Dmax at 1 µM: 31 to 50% for the first, 31 to 50% for the second.

First: CC1(C)C(=O)N(c2ccc(C#N)c(C(F)(F)F)c2)C(=S)N1c1ccc(OCCOCCOCCOCCNc2cccc3c2C(=O)N([C@@H]2CCC(=O)NC2=O)C3=O)cc1 [Compound 5, (R)-4-(3-(4-(2-(2-(2-(2-((2-(2,6-dioxopiperidin-3-yl)-1,3-dioxoisoindolin-4-yl)amino)ethoxy)ethoxy)ethoxy)ethoxy)phenyl)-4,4-dimethyl-5-oxo-2-thioxoimidazolidin-1-yl)-2-(trifluoromethyl) benzonitrile]
Second: CC1(C)C(=O)N(c2ccc(C#N)c(C(F)(F)F)c2)C(=S)N1c1ccc(OCCOCCOCCNc2cccc3c2C(=O)N(C2CCC(=O)NC2=O)C3=O)cc1 (stereo not drawn) [Compound 8, 4-(3-(4-(2-(2-(2-((2-(2,6-dioxopiperidin-3-yl)-1,3-dioxoisoindolin-4-yl)amino)ethoxy)ethoxy)ethoxy)phenyl)-4,4-dimethyl-5-oxo-2-thioxoimidazolidin-1-yl)-2-(trifluoromethyl) benzonitrile]
The Dmax at 1 µM of the first is higher: 31 to 50% for the first, 10 to 30% for the second.

`CC1(C)C(=O)N(c2ccc(C#N)c(C(F)(F)F)c2)C(=S)N1c1ccc(OCCOCCOCCOCCOCCOCCNc2cccc3c2C(=O)N(C2CCC(=O)NC2=O)C3=O)cc1` (stereo not drawn) [Compound 6, 4-(3-(4-((17-((2-(2,6-dioxopiperidin-3-yl)-1,3-dioxoisoindolin-4-yl)amino)-3,6,9,12,15-pentaoxa-heptadecyl)oxy)phenyl)-4,4-dimethyl-5-oxo-2-thioxoimidazolidin-1-yl)-2-(trifluoromethyl) benzonitrile] and `CC1(C)C(=O)N(c2ccc(C#N)c(C(F)(F)F)c2)C(=S)N1c1ccc(OCCOCCNc2cccc3c2C(=O)N(C2CCC(=O)NC2=O)C3=O)cc1` (stereo not drawn) [Compound 7, 4-(3-(4-(2-(2-((2-(2,6-dioxopiperidin-3-yl)-1,3-dioxoisoindolin-4-yl)amino)ethoxy)ethoxy)phenyl)-4,4-dimethyl-5-oxo-2-thioxoimidazolidin-1-yl)-2-(trifluoromethyl) benzonitrile] fall in the same range of Dmax at 1 µM: 10 to 30% for the first, 10 to 30% for the second.

`CC1(C)[C@H](NC(=O)c2ccc(OCCCCCOCCCNc3cccc4c3C(=O)N(C3CCC(=O)NC3=O)C4=O)cc2)C(C)(C)[C@H]1Oc1ccc(C#N)c(Cl)c1` (stereo partly drawn) [Compound 11] and `CC1(C)C(=O)N(c2ccc(C#N)c(C(F)(F)F)c2)C(=S)N1c1ccc(-c2ccc(OCCCCCNc3cccc4c3C(=O)N(C3CCC(=O)NC3=O)C4=O)cc2)cc1` (stereo not drawn) [Compound 13, 4-(3-(4-(4-((5-((2-(2,6-dioxopiperidin-3-yl)-1,3-dioxo-2,3-dihydro-1H-isoindol-4-yl)amino)pentyl)oxy)phenyl)phenyl)-4,4-dimethyl-5-oxo-2-sulfanylidene-imidazolidin-1-yl)-2-(trifluoromethyl) benzonitrile] cannot be ordered by Dmax at 1 µM: > 50% for the first, > 50% for the second.

Same assay, conditions: 16 h

First: CC1(C)C(=O)N(c2ccc(C#N)c(C(F)(F)F)c2)C(=S)N1c1ccc(OCCCOCCOCCOCCNc2cccc3c2C(=O)N(C2CCC(=O)NC2=O)C3=O)cc1 (stereo not drawn) [Compound 1, 4-(3-(4-(3-(2-(2-(2-((2-(2,6-dioxopiperidin-3-yl)-1,3-dioxoisoindolin-4-yl)amino)ethoxy)ethoxy)ethoxy)propoxy)phenyl)-4,4-dimethyl-5-oxo-2-thioxoimidazolidin-1-yl)-2-(trifluoromethyl) benzonitrile]
Second: CC1(C)C(=O)N(c2ccc(C#N)c(C(F)(F)F)c2)C(=S)N1c1ccc(OCCCCOCCOCCOCCNc2cccc3c2C(=O)N(C2CCC(=O)NC2=O)C3=O)cc1 (stereo not drawn) [Compound 10]
The Dmax of the first is lower: 10 to 30% for the first, 31 to 50% for the second.

`CC1(C)C(=O)N(c2ccc(C#N)c(C(F)(F)F)c2)C(=S)N1c1ccc(OCCCOCCOCCOCCNc2cccc3c2C(=O)N(C2(C)CCC(=O)NC2=O)C3=O)cc1` (stereo not drawn) [Compound 12, 4-(4,4-dimethyl-3-(4-((1-(2-(3-methyl-2,6-dioxopiperidin-3-yl)-1,3-dioxo-2,3-dihydro-1H-isoindol-4-yl)-4,7,10-trioxa-1-azatridecan-13-yl)oxy)phenyl)-5-oxo-2-sulfanylidene-imidazolidin-1-yl)-2-(trifluoromethyl) benzonitrile] gave a Dmax of 10 to 30%.

Target: T2, BRD4 (Homo sapiens, UniProt O60885)
T2 construct: endogenous in cells; host or cells: NAMALWA, Ramos, CA-46, DAUDI
Experiment: Western blot analysis of BRD4 in BL cell lines
Type: cell-based
Conditions: inhibitor 5 μM with A825 10 nM or 100 nM; overnight; NAMALWA cells
Procedure: Cultured cells were collected in lysis buffer containing 40 mM HEPES (pH 7.4), 140 mM NaCl, 2.5 mM EDTA, 1% NP-40, 0.1% SDS and protease inhibitor cocktail. After 10 minutes of centrifugation (14000 rpm), supernatant was collected for protein concentration determination by BCA method and subjected for immunoblotting by standard protocol. Western blot results were visualized using Bio-Rad Clarity ECL Western Blotting Substrate on Bio-Rad ChemiDoc™ MP imaging system.
A separate set of cells were treated in the same manner, except that DMSO was used in place of the inhibitor. […] Following treatment, cell lysates were collected and analyzed by immunoblot for BRD4 and Actin.
Specifically, NAMALWA and Ramos cells were treated with 300 nM of each inhibitor for 0 hr, 0.5 hr, 1.0 hr, 2.0 hr, 4.0 hr, 7.0 hr, 24 hr, and 48.0 hr. Following treatment, cell lysates were collected and analyzed by immunoblot for BRD4 and Actin.
(§1) Following treatment, cell lysates were collected and analyzed by immunoblot for BRD4 and Actin.
as §1, §1, §1
Cells were re-seeded in fresh medium and incubated without any compound for 0 hr, 2.0 hr, 4.0 hr, 6.0 hr, and 24.0 hr. In a parallel control experiment, cells were treated in the same manner, except DMSO was used in place of inhibitor. Lysates were collected and analyzed by immunoblot for BRD4, c-Myc, and Actin.

`CC(C)C[C@H](NC(=O)[C@H](CCc1ccccc1)NC(=O)CN1CCOCC1)C(=O)N[C@@H](Cc1ccccc1)C(=O)N[C@@H](CC(C)C)C(=O)[C@@]1(C)CO1` [Carfizomib] was tested, and the “effect of proteasome inhibitor on A825-induced BRD4 degradation” value was “completely prevented BRD4 degradation”.
For `CC(C)C[C@@H](C=O)NC(=O)[C@H](CC(C)C)NC(=O)[C@H](CC(C)C)NC(=O)OCc1ccccc1` [MG132] (Cbz-Leu-Leu-Leu-aldehyde), the “effect of proteasome inhibitor on A825-induced BRD4 degradation” value was “completely prevented BRD4 degradation”.
